Literature values as cited in patent US20130039858A1, “NIR MATERIALS AND NANOMATERIALS FOR THERANOSTIC APPLICATIONS” (University of Florida Research Foundation, Inc., priority 2010, published 2013).

Details: in H2O

critical micelle concentration: about 0.32 mg/mL
Compound: CC1(C)C(/C=C/C=C/C=C/C=C2\N(CCCCS(=O)(=O)O)c3ccc4ccccc4c3C2(C)C)=[N+](CCCCS(=O)(=O)[O-])c2ccc3ccccc3c21 [ICG, indocyanine green]
